Data reported in PubChem BioAssay (NCI).
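Protocol summary: plate cells (96-well), add compound at 5 concentrations, incubate 48 h, interpolate endpoints linearly. Definition used: TGI = concentration required for complete inhibition of growth.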

Tests used:
Test in all cases: NCI anticancer screen, dose series, 48 h
UO-31 renal = test system: UO-31 renal
CAKI-1 renal = test system: CAKI-1 renal
SF-268 CNS = test system: SF-268 CNS
OVCAR-4 ovarian = test system: OVCAR-4 ovarian
SK-MEL-2 melanoma = test system: SK-MEL-2 melanoma
NCI-H460 lung = test system: NCI-H460 lung
MDA-MB-231 breast = test system: MDA-MB-231 breast
U251 CNS = test system: U251 CNS
T-47D breast = test system: T-47D breast
RXF 393 renal = test system: RXF 393 renal

SMILES | TGI (UO-31 renal) [µM] | TGI (CAKI-1 renal) [µM] | TGI (SF-268 CNS) [µM] | TGI (OVCAR-4 ovarian) [µM] | TGI (SK-MEL-2 melanoma) [µM] | TGI (NCI-H460 lung) [µM] | TGI (MDA-MB-231 breast) [µM] | TGI (U251 CNS) [µM] | TGI (T-47D breast) [µM] | TGI (RXF 393 renal) [µM]
CO/N=C1/C(n2[nH]c(=O)n(-c3ccccc3)c2=O)C2C=CC1n1c(=O)n(-c3ccccc3)c(=O)n12 (stereo not given) | > 100 | > 100 | > 100 | > 100 | > 100 | > 100 | > 100 | > 100 | > 100 | > 100
COC(=O)c1ccc(NCC2=CC(=O)c3ccccc3C2=O)cc1 | 35.8 | 28 | 66.2 | 29.1 | 42.2 | 35.6 | 10.3 | 63 | 32.5 | > 61.7
N#C[C@](CO)(NC(=O)OCc1ccccc1)C(F)F | > 100 | > 100 | > 100 | > 100 | > 100 | > 100 | > 100 | > 100 | > 100 | > 100
OCC1CCCCN1Cc1nc2ccc(Cl)cc2[nH]1 (stereo not given) | > 100 | > 100 | > 100 | > 100 | > 100 | > 100 | > 100 | > 100 | > 100 | > 100
Cc1cc2nc3c(C(O)CO)nn(-c4ccccc4)c3nc2cc1C (stereo not given) | 36.1 | 33.2 | 63.3 | 53.4 | 56.2 | 37.4 | 55 | 38.4 | 91.5 | 43.6
COc1cccc2c1C(=O)c1ccc3cc(CO)cc(O)c3c1C2=O | 7.32 | 7.18 | 5.18 | 2.03 | 2.99 | 1.17 | 2.58 | 5.41 | 4.96 | 7.09
c1ccc2c(Cc3c[nH]c4ccccc34)c[nH]c2c1 | 27.7 | 31.4 | 45.7 | 35.3 | 52.6 | 40.5 | 31.5 | 37.2 | 63.7 | 33.1
O=C(c1ccco1)N1CCN(C(=O)c2ccco2)C1=S | 10.1 | 16.7 | 21.8 | 35.2 | 31 | 30 | 25.4 | 24 | 27.8 | 12
CCOC(=O)C1(Cc2ccccc2)CCN(C(=O)c2ccccc2)C2C1C2(Cl)Cl (stereo not given) | 58.9 | 75 | 91.8 | > 100 | 31.1 | 35.9 | 43.9 | 32.6 | 62.4 | 36.5
COc1cc(/C=C2\CCc3cc(OC)c(OC)cc3C2=O)cc(OC)c1 | > 100 | > 100 | > 100 | > 100 | > 57.8 | > 100 | > 100 | > 100 | 62.1 | > 42.4
CC1(C)N=C(N)N=C(N)N1c1ccc(CCCCc2ccc(Cl)cc2Cl)cc1 | 43.9 | 9.08 | 15.9 | 13.5 | 13.5 | 2.48 | 16.6 | 15.2 | 23.9 | 20.4
Cc1[nH]n(-c2nc(O)c(C)c(=O)[nH]2)c(=O)c1CCO | > 100 | > 100 | > 100 | > 100 | > 100 | > 100 | > 100 | > 100 | > 100 | 93.3
OCCCN(CCc1ccc(Cl)c(Cl)c1)CCN1CCCC1 | > 100 | > 100 | > 100 | > 100 | 36.6 | > 100 | > 100 | > 100 | > 100 | > 100
C/C=C/[C@@H]1O[C@H](CC#C[Si](C)(C)C)[C@@]2(C=O)C(C)=CC[C@H](C(C)C)[C@@H]12 | 3.53 | 5.13 | 52.3 | 51.7 | 33.5 | 39.8 | 36.6 | 34.4 | > 100 | 36.8
CCOC(=O)c1cc2cc(CSc3ccccc3)ccc2oc1=O | > 100 | > 100 | > 100 | > 100 | > 100 | > 100 | > 100 | > 100 | > 100 | > 100
CCOC(=O)NC(N(C)C(C(C)C)P(=O)(OCC)OCC)(C(F)(F)F)C(F)(F)F (stereo not given) | > 100 | > 100 | > 100 | > 100 | > 100 | > 100 | > 100 | > 100 | > 100 | > 100
N#Cc1nc(Cc2ccccc2)oc1N | > 100 | > 100 | > 100 | > 100 | > 100 | > 100 | > 100 | > 100 | > 100 | > 100
COc1ccc(NC(C)=O)c(C(=O)CCNC(C)=O)c1 | > 100 | > 100 | > 100 | > 100 | > 100 | > 100 | > 100 | > 100 | > 100 | > 100
C(/C=N/NC1=NCCN1)=N\NC1=NCCN1 | > 100 | > 100 | > 100 | > 100 | > 100 | > 100 | > 100 | > 100 | > 100 | > 100
O=C(NCCCCNCCCNC(=O)C(F)(F)F)C(F)(F)F | > 100 | > 100 | > 100 | > 100 | > 100 | > 100 | > 100 | > 100 | > 100 | > 100
CC1(C)OC2CN(C(=O)OCc3ccccc3)C(CO)C2O1 (stereo not given) | > 100 | > 100 | > 100 | > 100 | > 100 | > 100 | > 100 | > 100 | > 100 | > 100
CNC=O | > 10000 | > 10000 | > 10000 | > 10000 | > 10000 | > 10000 | > 10000 | > 10000 | > 10000 | > 10000

SMILES | TGI (UO-31 renal) [µM] | TGI (CAKI-1 renal) [µM] | TGI (SF-268 CNS) [µM] | TGI (OVCAR-4 ovarian) [µM] | TGI (SK-MEL-2 melanoma) [µM] | TGI (NCI-H460 lung) [µM] | TGI (MDA-MB-231 breast) [µM] | TGI (U251 CNS) [µM] | TGI (T-47D breast) [µM] | TGI (RXF 393 renal) [µM]
Cc1ccc(N2C(=O)CC(=O)N(NC(=O)C(C)Oc3ccccc3C)C2=S)cc1 (stereo not given) | > 100 | > 100 | > 100 | > 100 | > 100 | > 100 | > 100 | > 100 | > 100 | > 100
O=C(O)c1cc2c(cc1S(=O)(=O)O)C1C(C3C2C2(Cl)C(Cl)=C(Cl)C3(Cl)C2(Cl)Cl)C2(Cl)C(Cl)=C(Cl)C1(Cl)C2(Cl)Cl (stereo not given) | > 100 | > 100 | > 100 | > 100 | 73.4 | > 100 | 50.9 | > 100 | > 100 | > 100
CCCCN(CCCC)c1ccc(N=Nc2ccc(S(=O)(=O)O)cc2)cc1 | > 100 | 49.6 | > 100 | 74.7 | > 100 | > 100 | 64.7 | > 100 | 55.5 | 29.8
COc1ccc2c(-c3ccc(O)cc3)c(Oc3ccccc3)c(=O)oc2c1 | 27.5 | > 100 | > 100 | > 100 | > 100 | > 100 | > 100 | > 61.5 | > 100 | > 47.8
COc1ncc(C#CC(=O)c2ccccc2OC)c(OC)n1 | 2.97 | 4.17 | 12.2 | 20.7 | 6.4 | 15.7 | 2.75 | 8.33 | 22.9 | 3.32
O=C(/C(Cl)=C/c1ccccc1)c1ccccc1 | 5.49 | 3.97 | 21.9 | 16.9 | 28.6 | 30.5 | 20.6 | > 40.1 | 27.1 | 8.16
Cc1ccc(NNc2cc(=O)[nH]c(=O)[nH]2)cc1Cl | 15.3 | 28.4 | > 100 | 28.5 | 30.9 | > 100 | 29.9 | 30 | 25.1 | 30.4
C/C=C/OC1C(C2COC(C)(C)O2)OC2OC(C)(C)OC21 (stereo not given) | > 100 | > 100 | > 100 | > 100 | > 100 | > 100 | > 100 | > 100 | > 100 | > 100
C=CCC1(O)c2cccc(O)c2C(=O)c2cccc(O)c21 (stereo not given) | 52.8 | 68.2 | 85.4 | > 100 | 31.1 | 48 | 53.4 | 45.5 | 30.2 | 37
CC1C=C(NCC2(CO)CCC2)NC(N)=N1 (stereo not given) | > 100 | > 100 | > 100 | > 100 | > 100 | > 100 | > 100 | > 100 | > 100 | > 100
COc1ccc(C2c3cc4c(cc3OC(N3CCOCC3)C2C)OCO4)c(OC)c1 (stereo not given) | 58.7 | 62.1 | 53 | > 100 | 21.7 | 24.4 | 32.5 | 15.5 | > 54.8 | 10.7
CC(=O)NC1CCC(NC(=O)OC(C)(C)C)C(NC(=O)OC(C)(C)C)C1 (stereo not given) | > 100 | > 100 | > 100 | > 100 | > 100 | > 100 | > 100 | > 100 | > 100 | > 100
CC1=NN(C(=O)CC(=O)Nc2cccc(Cl)c2)C(=O)C1N=Nc1ccc(S(=O)(=O)c2ccc(N=NC3C(=O)N(C(=O)CC(=O)Nc4cccc(Cl)c4)N=C3C)cc2)cc1 (stereo not given) | > 100 | > 100 | > 100 | > 100 | > 100 | > 100 | 52.2 | > 100 | > 100 | > 100
C=CC1(CBr)CCC(C(C)(C)Br)O1 (stereo not given) | 25.7 | 16.5 | 38.2 | 28 | 28.1 | 27.7 | 28.3 | 15.9 | 15.5 | 27.3
CCOC(=O)CC[C@@H](NC(=O)c1ccc(NCc2ccc3nc(OC)c(OC)nc3c2)cc1)C(=O)OCC | > 65.4 | > 100 | > 100 | > 100 | 40.6 | 44.3 | > 100 | > 100 | 58.3 | > 58.1
O/N=C1\CC2(N3CCOCC3)CCC1(Cc1ccccc1)CC2 | > 100 | > 100 | 76.6 | 84.8 | 85 | > 100 | 67 | 38.3 | > 100 | 42
C/C(=N/NC(=S)N(Cc1ccccn1)Cc1ccccn1)c1cnccn1 | 0.525 | 8.08 | 14 | 8.14 | 26 | > 33.1 | 21.7 | > 47.9 | > 33.8 | 17.4
Cc1ccc(NC(=S)NNC(=O)c2cc(-c3ccccc3)nc3ccccc23)cc1C | 36.3 | > 100 | > 100 | 58.2 | 37.3 | 38.7 | 57.7 | 49.4 | 8.41 | 55.5
CC1(C)SC2C(NC(=O)Cc3ccccc3)C(=O)N2C1C(=O)O (stereo not given) | > 100 | > 100 | > 100 | > 100 | > 100 | > 100 | > 100 | > 100 | > 100 | > 100
COc1ccc(CN=C2Nc3ccncc3S(=O)(=O)N2c2ccccc2)cc1 | > 100 | > 100 | > 100 | > 100 | > 100 | > 100 | > 100 | > 100 | > 100 | > 100
Cn1c2c(c3ccccc31)CC(=O)N1CCCCC1C21OCCO1 (stereo not given) | > 100 | > 100 | > 100 | > 100 | > 100 | > 100 | > 100 | > 100 | > 100 | > 100
